Laboratory results: patent publication US11274106B2, “Topoisomerase inhibitors with antibacterial and anticancer activity” (THE BOARD OF TRUSTEES OF THE UNIVERSITY OF ILLINOIS, priority 2017, dated 2022)
Converted amounts (≈) assume the structure as drawn. Like-named read-outs stand apart in the source and are kept apart here.

Legend:
Type in all cases: cell-based
Jurkat = assay: Cell viability Alamar Blue assay, Jurkat; details: Homo sapiens, 72 h, Leukemia, mean ± SEM
Text: (§1) Topoisomerase inhibitors such as DOX are used as single agent and in combination therapy to treat a wide-range of cancer types.

S. aureus = assay: Antibacterial MIC, microbroth dilution, S. aureus
Protocol: To investigate this possibility, the antibacterial effects of the DNM derivatives was assessed against strains of E. coli, S. aureus, and MRSA using the microbroth dilution method (Table 2).

[1] = system: MDA-MB-231 triple negative breast cancer cells; assay: Antiproliferative SRB assay, MDA-MB-231; details: for IC50: SRB assay, mean ± SEM
Protocol: FIG. 1. […] Cell death measured by SRB assay after 72 hour of compound exposure (n≥3 biological replicates, error bars show SEM). IC50 values given as mean±SEM from ≥3 biological replicates.
To investigate the feasibility of developing a class of antitumor antibiotics based upon the DNM scaffold, the ability of the DNM to exert an antiproliferative effect against MDA-MB-231 breast cancer cells was evaluated.

Top1 [2] = biological target: T1, Top1 (Homo sapiens, UniProt P11387); assay: Top1 degradation by Western blot, MDA-MB-231; design: dose or concentration left out as unconfirmed; details: 4, and 6 hours, then 30-minute drug-free media
T1 sequence (P11387 1-765): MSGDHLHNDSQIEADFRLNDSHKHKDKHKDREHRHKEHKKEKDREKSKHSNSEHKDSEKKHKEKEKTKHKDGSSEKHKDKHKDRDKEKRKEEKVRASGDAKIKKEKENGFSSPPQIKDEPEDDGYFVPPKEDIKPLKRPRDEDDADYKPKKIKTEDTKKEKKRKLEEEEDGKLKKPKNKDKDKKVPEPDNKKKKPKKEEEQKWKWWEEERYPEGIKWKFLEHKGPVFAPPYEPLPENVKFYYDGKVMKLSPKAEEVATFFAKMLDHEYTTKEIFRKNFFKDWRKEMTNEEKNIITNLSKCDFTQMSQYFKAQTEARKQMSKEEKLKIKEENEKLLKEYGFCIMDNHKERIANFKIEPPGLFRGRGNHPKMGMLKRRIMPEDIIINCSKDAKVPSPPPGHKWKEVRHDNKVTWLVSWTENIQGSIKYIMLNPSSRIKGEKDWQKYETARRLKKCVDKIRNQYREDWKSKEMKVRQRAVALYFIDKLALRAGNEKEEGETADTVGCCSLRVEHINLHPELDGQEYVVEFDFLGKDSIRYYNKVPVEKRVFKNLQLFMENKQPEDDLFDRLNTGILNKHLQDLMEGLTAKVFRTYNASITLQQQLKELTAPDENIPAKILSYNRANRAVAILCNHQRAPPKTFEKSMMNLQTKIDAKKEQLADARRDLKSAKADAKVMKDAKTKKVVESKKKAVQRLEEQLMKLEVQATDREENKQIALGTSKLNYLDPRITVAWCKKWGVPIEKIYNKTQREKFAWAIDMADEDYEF
Protocol: (§2) FIG. 4. Level of Top1-degradation predicts cell line sensitivity. (a) Cells treated with 25 μM of compound for indicated times followed by a 30 minute incubation with drug-free media. Cells were lysed with RIPA and Top1 levels assessed by Western Blot. (b) Degradation of Top1 results in a right-ward shift in the dose-response curve. Effect is most pronounced in Top1-poisons (Ph-6DNM-NH3, CPT) than Top1 catalytic inhibitor (6DNM-Pyr). Cell death measured by SRB assay after 72 hour of compound exposure (n≥3 biological replicates, error bars show SEM).
(§3) This difference in mechanism of action between Ph-6DNM-NH3 and 6DNM-Pyr may provide an explanation of the differences in cell line sensitivities between the different DNM derivatives. […] This downregulation serves as a resistance mechanism and the level of Top1 degradation is correlated with reduced sensitivity to CPT. To determine if a similar mechanism is responsible for the reduced sensitivity to Ph-6DNM-NH3 and its derivatives in certain cell lines, the effects of Ph-6DNM-NH3 and 6DNM-Pyr were compared to that of CPT in […] and BT-474, two cancer cell lines known to be deficient and proficient in Top1 degradation, respectively. Cells were treated with 50 μM Ph-6DNM-NH3, 6DNM-Pyr, or CPT for 2, 4, and 6 hours. Following a 30-minute incubation with drug-free media to allow for the reversal of any Top1cc formed, cells were lysed and Top1 concentrations assessed by Western blot (FIG. 4a).

IMR32 = assay: Antiproliferative SRB assay, IMR32; details: Homo sapiens, IMR-32, 72 h, Neuroblastoma, mean ± SEM
Text: as §1

Top1 [3] = biological target: T1, Top1; assay: Top1 degradation by Western blot, BT-474; details: 50 μM for 2, 4, and 6 hours, then 30-minute drug-free media
Protocol: as §2, §3

ES-2 = assay: Antiproliferative SRB assay, ES-2; details: Homo sapiens, ES-2, 72 h, Cervical cancer (footnote f), mean ± SEM
Text: as §1

Top2cc = biological target: T2, Top2cc (Homo sapiens, UniProt P11388); assay: ICE assay for Top2α-DNA complexes in H460 cells; details: for Accumulation of Top2cc (ICE assay): 50 μM; for Effect on ETP-induced Top2cc: pre-treatment 30 minutes prior to ETP (50 μM)
T2 construct: endogenous in cells; host or cells: H460
T2 sequence (P11388 whole entry): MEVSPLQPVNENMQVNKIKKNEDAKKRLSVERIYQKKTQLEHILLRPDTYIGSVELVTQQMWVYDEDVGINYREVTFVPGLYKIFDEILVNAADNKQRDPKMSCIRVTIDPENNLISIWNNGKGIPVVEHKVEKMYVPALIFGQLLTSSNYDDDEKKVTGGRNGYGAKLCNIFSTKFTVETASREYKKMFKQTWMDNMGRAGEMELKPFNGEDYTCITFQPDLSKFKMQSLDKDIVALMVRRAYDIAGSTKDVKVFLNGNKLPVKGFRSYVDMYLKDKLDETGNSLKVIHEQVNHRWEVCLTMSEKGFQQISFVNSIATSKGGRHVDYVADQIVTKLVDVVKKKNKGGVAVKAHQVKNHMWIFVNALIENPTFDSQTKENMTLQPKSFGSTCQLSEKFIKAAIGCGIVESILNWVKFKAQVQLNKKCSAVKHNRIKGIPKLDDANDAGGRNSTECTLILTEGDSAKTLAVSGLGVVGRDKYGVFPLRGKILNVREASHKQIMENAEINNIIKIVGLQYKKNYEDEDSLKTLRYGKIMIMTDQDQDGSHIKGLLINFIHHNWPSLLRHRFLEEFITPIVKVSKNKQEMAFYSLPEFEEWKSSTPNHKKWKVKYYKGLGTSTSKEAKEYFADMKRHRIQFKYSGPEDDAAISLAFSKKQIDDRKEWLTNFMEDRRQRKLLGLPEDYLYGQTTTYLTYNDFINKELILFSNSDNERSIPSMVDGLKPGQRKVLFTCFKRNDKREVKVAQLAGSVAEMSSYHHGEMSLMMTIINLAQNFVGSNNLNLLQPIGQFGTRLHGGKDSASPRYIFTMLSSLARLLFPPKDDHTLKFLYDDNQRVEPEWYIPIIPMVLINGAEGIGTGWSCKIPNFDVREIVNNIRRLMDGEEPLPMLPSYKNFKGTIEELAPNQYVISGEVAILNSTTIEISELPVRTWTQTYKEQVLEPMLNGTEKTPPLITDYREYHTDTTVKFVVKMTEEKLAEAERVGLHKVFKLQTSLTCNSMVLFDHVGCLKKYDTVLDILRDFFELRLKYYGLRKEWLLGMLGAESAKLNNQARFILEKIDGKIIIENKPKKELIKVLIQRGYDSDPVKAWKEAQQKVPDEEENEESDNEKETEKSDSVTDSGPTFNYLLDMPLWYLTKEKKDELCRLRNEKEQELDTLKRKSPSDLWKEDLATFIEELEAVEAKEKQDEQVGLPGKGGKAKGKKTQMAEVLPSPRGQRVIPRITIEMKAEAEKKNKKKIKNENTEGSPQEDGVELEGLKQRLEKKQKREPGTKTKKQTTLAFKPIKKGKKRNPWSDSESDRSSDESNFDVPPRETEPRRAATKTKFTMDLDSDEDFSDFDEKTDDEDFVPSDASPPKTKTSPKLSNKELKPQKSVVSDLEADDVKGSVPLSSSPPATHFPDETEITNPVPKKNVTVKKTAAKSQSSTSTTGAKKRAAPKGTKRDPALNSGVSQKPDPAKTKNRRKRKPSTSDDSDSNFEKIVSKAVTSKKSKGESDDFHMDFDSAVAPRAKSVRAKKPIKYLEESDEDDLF
Text: FIG. 3. DNM derivatives are dual Top1/Top2 inhibitors with different modes of inhibition. (a) Inhibition of decatenating ability of Top2α with increasing concentrations of ETP, 6DNM-NH3, 6DNM-Pyr, and Ph-6DNM-NH3. K, kinetoplast DNA; OC, open circular; R, relaxed. (b) Inhibition of relaxing ability of Top1 with increasing concentrations of CPT, 6DNM-NH3, 6DNM-Pyr, and Ph-6DNM-NH3. R, relaxed; S, supercoiled. (c) Detection of Top2a-DNA using the ICE Assay. Genomic DNA ([…]) of H460 cells treated with drugs (50 μM, 30 min) was applied to nitrocellulose membrane and immunoblotted for Top2a. (d) Detection of Top1-DNA adducts using ICE Assay. Same procedure as (c) using 1 μg of DNA. (e) Inhibition of ETP-induced poisoning of Top2a. H460 cells treated with indicated concentrations of inhibitor for 30 min prior to treatment with ETP (50 μM). Detection of Top2α as in (c).
The in vivo complex of enzyme (ICE) assay can be used to distinguish poisons from catalytic inhibitors. The ICE assay consists of isolating the genomic DNA of cells treated with small molecules in a manner the preserves covalent DNA-protein complexes and applying it to nitrocellulose membranes. Because topoisomerase poisons stabilize the cleavage complexes, DNA-protein complexes can be detected by immunoblotting for specific topoisomerases, whereas catalytic inhibitors produce no such result. To determine if DNM derivatives are acting as poisons or catalytic inhibitors, H460 human lung cells were exposed to 50 μM of the Top2 poison ETP, Ph-6DNM-NH3, 6DNM-NH3, and 6DNM-Pyr and assessed for their ability to stabilize Top2cc. […] In a similar fashion, next investigated was the mode of Top1 inhibition using the ICE assay (FIG. 3b).

[4] = Homo sapiens, MDA-MB-231, 72 h, Breast cancer, read-out: 72 hour IC50, MDA-MB-231

| MIC (S. aureus; Staphylococcus aureus) | IC50 ([1]; Homo sapiens, MDA-MB-231, 72 h, 72 hour compound exposure, read-out: MDA-MB-231 IC50) | Compound | IC50 (Jurkat) | S. aureus MIC (S. aureus) | IC50 [1, 4] | Improvement in potency relative to 6DNM-NH3 ([1]; MDA-MB-231, Table 1) | IC50 ([1]; 72 hour compound exposure, read-out: MDA-MB-231 IC50) | Top1 levels by Western blot in MDA-MB-231 (Top1 [2]) | IC50 (IMR32) | Top1 levels by Western blot in BT-474 (Top1 [3]) | IC50 (ES-2) | Accumulation of Top2cc (ICE assay) (Top2cc) | Effect on ETP-induced Top2cc (Top2cc) |
| --- | --- | --- | --- | --- | --- | --- | --- | --- | --- | --- | --- | --- | --- |
| – | – | Cc1cc(=O)n2c3c(c4c(cc13)c1ccccc1c(=O)n4C)OCC2CN (stereo not drawn) [Compound 15] | 290 ± 30 nM | 1 µg/mL | 30 ± 6 nM | 4.5 fold | 48 ± 8 nM | minimal differences in Top1 relative to untreated cells | 8.6 ± 0.1 nM | time-dependent decrease in the levels of Top1 | 28 ± 6 nM | only ETP treatment resulted in the accumulation of Top2cc | dose-dependent decrease in ETP-induced Top2cc |
| 0.5 µg/mL (≈ 1.32 µM) | 14 ± 1 nM | Cc1cc(=O)n(C)c2c3c4c(cc12)c(C)cc(=O)n4C(CN1CCCC1)CO3 (stereo not drawn) [Compound 20] | 20 ± 6 nM | – | 14 ± 1 nM | – | – | minimal differences in Top1 relative to untreated cells | 4.4 ± 0.3 nM | minimal effect | 17 ± 4 nM | only ETP treatment resulted in the accumulation of Top2cc | dose-dependent decrease in ETP-induced Top2cc |
